From article PMC7180948, “New Insights into 4-Anilinoquinazolines as Inhibitors of Cardiac Troponin I–Interacting Kinase (TNNi3K)” (Molecules, 2020)

Assays:
Assay in all cases: biochemical
Design in all cases: KINOMEscan competition binding panel (Eurofins DiscoverX), single concentration, % inhibition
Conditions in all cases: read-out: 7 at 1 µM % inhibition
EPHA1 = EPHA1 (Homo sapiens, UniProt P21709)
Outline: (§1)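 KINOMEscan binding panel of >400 kinases, run by Eurofins DiscoverX, with compounds tested at a single concentration of 1 µM.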

PIK3CD = PIK3CD (Homo sapiens, UniProt O00329)
Sequence of PIK3CD (O00329 whole entry): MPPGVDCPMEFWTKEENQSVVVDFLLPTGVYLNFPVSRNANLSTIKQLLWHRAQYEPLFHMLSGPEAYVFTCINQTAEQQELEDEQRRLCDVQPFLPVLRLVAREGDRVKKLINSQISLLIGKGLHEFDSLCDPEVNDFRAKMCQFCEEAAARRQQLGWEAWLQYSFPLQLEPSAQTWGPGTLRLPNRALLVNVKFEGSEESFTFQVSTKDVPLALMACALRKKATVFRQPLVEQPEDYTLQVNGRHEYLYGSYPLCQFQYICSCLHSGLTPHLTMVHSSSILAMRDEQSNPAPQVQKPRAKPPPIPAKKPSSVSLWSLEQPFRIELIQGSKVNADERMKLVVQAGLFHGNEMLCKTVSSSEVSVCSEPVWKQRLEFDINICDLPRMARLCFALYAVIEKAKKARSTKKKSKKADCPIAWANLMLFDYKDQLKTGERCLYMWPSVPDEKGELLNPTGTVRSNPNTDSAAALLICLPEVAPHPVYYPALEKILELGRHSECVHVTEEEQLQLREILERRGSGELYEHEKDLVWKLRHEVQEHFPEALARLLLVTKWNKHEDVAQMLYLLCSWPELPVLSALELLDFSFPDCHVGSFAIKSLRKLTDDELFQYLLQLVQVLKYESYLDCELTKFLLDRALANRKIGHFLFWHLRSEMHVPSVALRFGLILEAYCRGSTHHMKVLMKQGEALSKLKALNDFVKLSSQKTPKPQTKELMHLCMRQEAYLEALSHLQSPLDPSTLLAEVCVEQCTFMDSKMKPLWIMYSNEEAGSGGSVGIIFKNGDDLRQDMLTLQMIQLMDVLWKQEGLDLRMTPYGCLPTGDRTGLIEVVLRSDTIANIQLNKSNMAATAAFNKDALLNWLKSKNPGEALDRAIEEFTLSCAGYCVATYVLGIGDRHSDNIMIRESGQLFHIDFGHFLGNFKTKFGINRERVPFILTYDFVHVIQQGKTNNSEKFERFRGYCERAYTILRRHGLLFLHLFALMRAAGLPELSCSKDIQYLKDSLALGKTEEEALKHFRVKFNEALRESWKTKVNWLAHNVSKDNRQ
Outline: as §1

CSK = CSK (Homo sapiens, UniProt P41240)
Outline: as §1

PAK3 = PAK3 (Homo sapiens, UniProt O75914)
Outline: as §1

KIT(D816H) = KIT(D816H) (Homo sapiens, UniProt P10721, D816H)
Outline: as §1

CSNK2A2 = CSNK2A2 (Homo sapiens, UniProt P19784)
Outline: as §1

MEK6 = target: T1, MEK6 (Homo sapiens, UniProt P52564)
T1 construct: gene MAP2K6
Outline: as §1

FES = FES (Homo sapiens, UniProt P07332)
Outline: as §1

TNK2 = TNK2 (Homo sapiens, UniProt Q07912)
Outline: as §1

p38-beta = target: T2, p38-beta (Homo sapiens, UniProt Q15759)
T2 construct: gene MAPK11
T2 sequence (Q15759 whole entry): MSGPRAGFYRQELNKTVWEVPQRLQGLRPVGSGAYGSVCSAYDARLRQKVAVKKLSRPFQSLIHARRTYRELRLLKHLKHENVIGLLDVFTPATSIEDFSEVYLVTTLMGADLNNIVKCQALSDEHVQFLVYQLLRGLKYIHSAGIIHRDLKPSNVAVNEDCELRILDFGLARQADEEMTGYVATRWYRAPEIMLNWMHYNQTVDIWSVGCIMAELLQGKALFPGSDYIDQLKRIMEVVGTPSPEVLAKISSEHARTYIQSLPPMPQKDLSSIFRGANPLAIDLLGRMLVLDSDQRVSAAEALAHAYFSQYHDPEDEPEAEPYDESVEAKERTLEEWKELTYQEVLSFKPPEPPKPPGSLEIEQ
Outline: as §1

RIPK4 = RIPK4 (Homo sapiens, UniProt P57078)
Outline: as §1

RIOK1 = RIOK1 (Homo sapiens, UniProt Q9BRS2)
Sequence of RIOK1 (Q9BRS2 whole entry): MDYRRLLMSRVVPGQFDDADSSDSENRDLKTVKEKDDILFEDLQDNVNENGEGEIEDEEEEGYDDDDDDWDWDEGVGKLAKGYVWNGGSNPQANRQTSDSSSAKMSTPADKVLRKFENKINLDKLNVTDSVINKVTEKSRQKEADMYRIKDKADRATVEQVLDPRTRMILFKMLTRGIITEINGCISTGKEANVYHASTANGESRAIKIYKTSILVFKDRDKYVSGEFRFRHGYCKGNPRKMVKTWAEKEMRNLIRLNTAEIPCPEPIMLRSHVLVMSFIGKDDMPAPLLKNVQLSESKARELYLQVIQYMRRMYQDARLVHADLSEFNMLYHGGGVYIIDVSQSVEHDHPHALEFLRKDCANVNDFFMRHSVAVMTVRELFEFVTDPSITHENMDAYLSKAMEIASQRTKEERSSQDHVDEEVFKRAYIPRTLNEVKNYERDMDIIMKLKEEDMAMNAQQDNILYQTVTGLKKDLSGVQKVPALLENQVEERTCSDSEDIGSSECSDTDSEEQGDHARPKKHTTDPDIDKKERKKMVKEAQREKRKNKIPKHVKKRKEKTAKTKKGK
Outline: as §1

[1] = target: T3, JAK2(JH1domain-catalytic) (Homo sapiens, UniProt O60674)
T3 construct: JH1domain-catalytic
Outline: as §1

[2] = target: T4, JAK3(JH1domain-catalytic) (Homo sapiens, UniProt P52333)
T4 construct: JH1domain-catalytic
T4 sequence (P52333 whole entry): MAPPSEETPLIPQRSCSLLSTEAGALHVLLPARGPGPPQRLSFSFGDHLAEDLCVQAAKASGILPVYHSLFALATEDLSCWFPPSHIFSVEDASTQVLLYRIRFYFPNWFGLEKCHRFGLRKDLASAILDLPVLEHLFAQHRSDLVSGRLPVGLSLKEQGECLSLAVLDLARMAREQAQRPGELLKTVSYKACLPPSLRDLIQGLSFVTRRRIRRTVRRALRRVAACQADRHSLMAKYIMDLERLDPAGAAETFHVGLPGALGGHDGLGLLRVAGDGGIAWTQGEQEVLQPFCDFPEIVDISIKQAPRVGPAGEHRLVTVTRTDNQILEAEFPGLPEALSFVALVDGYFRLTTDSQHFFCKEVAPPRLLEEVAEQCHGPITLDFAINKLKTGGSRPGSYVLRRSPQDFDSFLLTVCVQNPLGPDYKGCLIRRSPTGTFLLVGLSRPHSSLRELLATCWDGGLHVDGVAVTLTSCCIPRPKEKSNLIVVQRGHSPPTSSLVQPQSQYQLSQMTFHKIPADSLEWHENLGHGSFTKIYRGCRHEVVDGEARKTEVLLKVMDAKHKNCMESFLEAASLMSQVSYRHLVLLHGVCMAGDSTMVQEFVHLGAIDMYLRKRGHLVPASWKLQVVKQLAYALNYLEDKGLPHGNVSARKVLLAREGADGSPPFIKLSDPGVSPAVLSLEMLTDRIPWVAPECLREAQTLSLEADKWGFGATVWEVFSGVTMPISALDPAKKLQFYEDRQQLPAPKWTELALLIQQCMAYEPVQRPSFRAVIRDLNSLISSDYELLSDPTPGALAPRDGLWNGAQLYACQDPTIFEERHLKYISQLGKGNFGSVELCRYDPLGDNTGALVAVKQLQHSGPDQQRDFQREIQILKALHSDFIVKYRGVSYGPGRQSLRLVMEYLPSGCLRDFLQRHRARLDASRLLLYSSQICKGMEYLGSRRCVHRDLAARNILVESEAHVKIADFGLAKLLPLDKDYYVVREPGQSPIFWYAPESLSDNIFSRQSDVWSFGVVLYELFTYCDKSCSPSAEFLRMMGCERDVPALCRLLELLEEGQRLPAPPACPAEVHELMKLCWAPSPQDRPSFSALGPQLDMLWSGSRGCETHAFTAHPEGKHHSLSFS
Outline: as §1

EGFR(L747-T751del,Sins) = EGFR(L747-T751del,Sins) (Homo sapiens, UniProt P00533, DEL747-750/T751S)
Sequence of EGFR(L747-T751del,Sins) (P00533 with tags, fused parts or gaps DEL747-750/T751S): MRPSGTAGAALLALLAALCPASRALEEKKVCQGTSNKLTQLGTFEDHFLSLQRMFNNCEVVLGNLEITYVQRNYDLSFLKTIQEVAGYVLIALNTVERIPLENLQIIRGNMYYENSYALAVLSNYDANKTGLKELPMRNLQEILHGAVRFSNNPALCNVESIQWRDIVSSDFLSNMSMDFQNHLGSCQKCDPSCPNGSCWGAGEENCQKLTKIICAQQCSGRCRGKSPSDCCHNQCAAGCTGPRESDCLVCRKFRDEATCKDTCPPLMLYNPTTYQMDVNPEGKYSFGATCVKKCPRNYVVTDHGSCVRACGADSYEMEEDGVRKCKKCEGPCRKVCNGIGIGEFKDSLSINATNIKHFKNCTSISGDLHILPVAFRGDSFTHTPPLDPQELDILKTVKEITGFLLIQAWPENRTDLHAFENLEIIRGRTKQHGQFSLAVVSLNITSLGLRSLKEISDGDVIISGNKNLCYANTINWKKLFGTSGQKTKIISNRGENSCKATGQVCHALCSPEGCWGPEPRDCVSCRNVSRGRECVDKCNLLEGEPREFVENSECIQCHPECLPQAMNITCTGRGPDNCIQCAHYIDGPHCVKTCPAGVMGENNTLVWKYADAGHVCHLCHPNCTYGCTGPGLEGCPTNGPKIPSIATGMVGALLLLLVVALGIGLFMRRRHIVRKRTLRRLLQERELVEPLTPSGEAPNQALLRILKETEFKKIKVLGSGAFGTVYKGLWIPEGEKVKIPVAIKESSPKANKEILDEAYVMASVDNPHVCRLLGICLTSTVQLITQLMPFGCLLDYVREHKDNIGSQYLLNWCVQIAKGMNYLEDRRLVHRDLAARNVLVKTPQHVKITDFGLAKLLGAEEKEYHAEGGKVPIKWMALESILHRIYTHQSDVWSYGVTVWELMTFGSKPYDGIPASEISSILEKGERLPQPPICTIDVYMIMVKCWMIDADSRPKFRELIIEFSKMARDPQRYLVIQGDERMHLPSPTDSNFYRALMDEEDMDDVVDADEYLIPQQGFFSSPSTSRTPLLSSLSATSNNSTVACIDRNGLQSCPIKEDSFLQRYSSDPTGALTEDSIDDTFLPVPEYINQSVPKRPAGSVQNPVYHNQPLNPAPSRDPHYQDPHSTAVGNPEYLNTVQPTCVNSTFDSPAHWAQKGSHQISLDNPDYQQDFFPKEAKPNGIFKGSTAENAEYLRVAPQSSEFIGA
Outline: as §1

IRAK3 = IRAK3 (Homo sapiens, UniProt Q9Y616)
Sequence of IRAK3 (Q9Y616 whole entry): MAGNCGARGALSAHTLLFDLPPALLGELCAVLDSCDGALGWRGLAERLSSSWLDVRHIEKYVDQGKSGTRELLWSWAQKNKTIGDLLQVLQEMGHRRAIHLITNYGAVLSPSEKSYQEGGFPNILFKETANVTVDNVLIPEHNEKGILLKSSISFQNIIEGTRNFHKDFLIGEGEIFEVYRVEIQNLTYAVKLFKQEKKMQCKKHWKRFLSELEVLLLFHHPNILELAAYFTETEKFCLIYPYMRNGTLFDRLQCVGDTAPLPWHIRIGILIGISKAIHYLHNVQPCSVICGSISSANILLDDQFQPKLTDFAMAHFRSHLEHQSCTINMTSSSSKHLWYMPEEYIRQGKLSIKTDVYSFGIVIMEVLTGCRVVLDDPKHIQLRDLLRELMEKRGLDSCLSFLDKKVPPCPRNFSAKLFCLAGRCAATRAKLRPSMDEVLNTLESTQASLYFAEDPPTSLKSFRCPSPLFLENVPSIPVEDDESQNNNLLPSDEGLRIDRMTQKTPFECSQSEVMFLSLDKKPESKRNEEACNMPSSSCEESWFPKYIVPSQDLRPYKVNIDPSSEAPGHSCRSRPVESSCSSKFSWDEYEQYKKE
Outline: as §1

CAMK2G = CAMK2G (Homo sapiens, UniProt Q13555)
Outline: as §1

TXK = TXK (Homo sapiens, UniProt P42681)
Outline: as §1

GRK4 = GRK4 (Homo sapiens, UniProt P32298)
Outline: as §1

TRKB = target: T5, TRKB (Homo sapiens, UniProt Q16620)
T5 construct: gene NTRK2
Outline: as §1

EPHB2 = EPHB2 (Homo sapiens, UniProt P29323)
Outline: as §1

RIPK2 = RIPK2 (Homo sapiens, UniProt O43353)
Outline: as §1

KIT(L576P) = KIT(L576P) (Homo sapiens, UniProt P10721, L576P)
Outline: as §1

p38-delta = target: T6, p38-delta (Homo sapiens, UniProt O15264)
T6 construct: gene MAPK13
Outline: as §1

## CNS(=O)(=O)c1ccc(N(C)C)c(Nc2ncnc3cc(OC)c(OC)cc23)c1 [compound 7, 3-((6,7-dimethoxyquinazolin-4-yl)amino)-4-(dimethylamino)-N-methylbenzenesulfonamide]
EPHA1
  inhibition at 1 µM: 0%
PIK3CD
  inhibition at 1 µM: 61%
CSK
  inhibition at 1 µM: 0%
PAK3
  inhibition at 1 µM: 54%
KIT(D816H)
  inhibition at 1 µM: 100%
CSNK2A2
  inhibition at 1 µM: 13%
MEK6
  inhibition at 1 µM: 0%
FES
  inhibition at 1 µM: 0%
TNK2
  inhibition at 1 µM: 26%
p38-beta
  inhibition at 1 µM: 0%
RIPK4
  inhibition at 1 µM: 0%
RIOK1
  inhibition at 1 µM: 0%
[1]
  inhibition at 1 µM: 9%
[2]
  inhibition at 1 µM: 17%
EGFR(L747-T751del,Sins)
  inhibition at 1 µM: 0%
IRAK3
  inhibition at 1 µM: 0%
CAMK2G
  inhibition at 1 µM: 0%
TXK
  inhibition at 1 µM: 0%
GRK4
  inhibition at 1 µM: 0%
TRKB
  inhibition at 1 µM: 14%
EPHB2
  inhibition at 1 µM: 0%
RIPK2
  inhibition at 1 µM: 28%
KIT(L576P)
  inhibition at 1 µM: 49%
p38-delta
  inhibition at 1 µM: 0%
